Molecules are shown by their SMILES. Where a name gives a salt, the structure may show the parent alone. Calls of active or inactive are those of the source. No cut-off for these calls is given here. Where only a bound is given, the exact number is not on record here.

This is an account of results in ChEMBL document CHEMBL4130461, “New chemotype of selective and potent inhibitors of human delta 24-dehydrocholesterol reductase” (Eur J Med Chem, 2017).

For the first data set, the system named is HL-60. Kind of data set: Induction of sterol accumulation in human HL60 cells assessed as desmosterol accumulation at 1 uM incubated for 24 hrs by GC-MS analysis. Format: functional, cell-based.
Conditions: not given
As for `CN1CCN(CCCN2c3ccccc3Sc3ccc(C(F)(F)F)cc32)CC1` [TRIFLUOPERAZINE HYDROCHLORIDE], the outcome was Active.
As to `C/C=C/C(=O)OC[C@@H](C)[C@H]1CC[C@H]2C3=CC[C@H]4C[C@@H](OC(C)=O)CC[C@]4(C)[C@H]3CC[C@]12C`, the outcome was Active.
Regarding `CC(=O)O[C@H]1CC[C@@]2(C)[C@@H](CC=C3[C@@H]2CC[C@]2(C)[C@@H]([C@H](C)CO)CC[C@@H]32)C1`, the outcome was Active.
Still for that read-out and setting: then `CCN(CC)CCOc1ccc(C(O)(Cc2ccc(Cl)cc2)c2ccc(C)cc2)cc1` (stereo not drawn) [TRIPARANOL], with “Active”.
Consider `CNC(=O)[C@@H](C)[C@H]1CC[C@H]2C3=CC[C@H]4C[C@@H](OC(C)=O)CC[C@]4(C)[C@H]3CC[C@]12C`, for which the result was Active.
Still for that read-out and setting: then `C[C@H](/C=C/c1cc[n+](C)cc1)[C@H]1CC[C@H]2C3=CC[C@H]4C[C@@H](O)CC[C@]4(C)[C@H]3CC[C@]12C.[I-]`, with “Active”; and `C/C=C(\C)C(=O)OC[C@@H](C)[C@H]1CC[C@H]2C3=CC[C@H]4C[C@@H](OC(C)=O)CC[C@]4(C)[C@H]3CC[C@]12C`, with “Active”; and `CC(=O)O[C@H]1CC[C@@]2(C)[C@@H](CC=C3[C@@H]2CC[C@]2(C)[C@@H]([C@H](C)CN)CC[C@@H]32)C1`, with “Active”.
Still for that read-out and setting: the same measure for `C[C@H](CO)[C@H]1CC[C@H]2C3=CC[C@H]4C[C@@H](O)CC[C@]4(C)[C@H]3CC[C@]12C`: “Active”; for `CNC[C@@H](C)[C@H]1CC[C@H]2C3=CC[C@H]4C[C@@H](OC(C)=O)CC[C@]4(C)[C@H]3CC[C@]12C`: “Active”.
Turning to `CONC(=O)[C@@H](C)[C@H]1CC[C@H]2C3=CC[C@H]4C[C@@H](OC(C)=O)CC[C@]4(C)[C@H]3CC[C@]12C`, the outcome was Active.
On the same count and under the same terms, then `C[C@H](CCC(=O)N(C)C)[C@H]1CC[C@H]2[C@@H]3CC=C4C[C@@H](O)CC[C@]4(C)[C@H]3CC[C@]12C`, with “Active”.
The same measure, in the same setting: the same measure for `CCC(=O)NC[C@@H](C)[C@H]1CC[C@H]2C3=CC[C@H]4C[C@@H](OC(C)=O)CC[C@]4(C)[C@H]3CC[C@]12C`: “Active”.
For the molecule `CC(=O)O[C@H]1CC[C@@]2(C)[C@@H](CC=C3[C@@H]2CC[C@]2(C)[C@@H]([C@H](C)COC(=O)CN(C)C)CC[C@@H]32)C1`, the outcome was Active.

A further data set deals with HL-60. Kind of data set: Intracellular drug accumulation in human HL60 cells at 10 uM incubated for 24 hrs by GC-MS analysis. Format: ADME, cell-based. Particulars: hl-60, 24 h.
With `C[C@H](CO)[C@H]1CC[C@H]2C3=CC[C@H]4C[C@@H](O)CC[C@]4(C)[C@H]3CC[C@]12C`, the Drug uptake was 1 µM.

Another data set deals with HL-60. Kind of data set: Induction of sterol accumulation in human HL60 cells assessed as desmosterol accumulation at 50 uM incubated for 24 hrs by GC-MS analysis. Format: functional, cell-based.
Conditions: not given
For the molecule `CN1CCN(CCCN2c3ccccc3Sc3ccc(C(F)(F)F)cc32)CC1` [TRIFLUOPERAZINE HYDROCHLORIDE], the result was Active.
Same read-out and setting: the same measure for `CC(=O)O[C@H]1CC[C@@]2(C)[C@@H](CC=C3[C@@H]2CC[C@]2(C)[C@@H]([C@H](C)CO)CC[C@@H]32)C1`: “Active”; for `CNC(=O)[C@@H](C)[C@H]1CC[C@H]2C3=CC[C@H]4C[C@@H](OC(C)=O)CC[C@]4(C)[C@H]3CC[C@]12C`: “Active”; for `C/C=C(\C)C(=O)OC[C@@H](C)[C@H]1CC[C@H]2C3=CC[C@H]4C[C@@H](OC(C)=O)CC[C@]4(C)[C@H]3CC[C@]12C`: “Active”.
The same measure, in the same setting: the same measure for `CC(=O)O[C@H]1CC[C@@]2(C)[C@@H](CC=C3[C@@H]2CC[C@]2(C)[C@@H]([C@H](C)CN)CC[C@@H]32)C1`: “Active”; for `C[C@H](CO)[C@H]1CC[C@H]2C3=CC[C@H]4C[C@@H](O)CC[C@]4(C)[C@H]3CC[C@]12C`: “Active”; for `CONC(=O)[C@@H](C)[C@H]1CC[C@H]2C3=CC[C@H]4C[C@@H](OC(C)=O)CC[C@]4(C)[C@H]3CC[C@]12C`: “Active”.
The same measure, in the same setting: the same measure for `C[C@H](CCC(=O)N(C)C)[C@H]1CC[C@H]2[C@@H]3CC=C4C[C@@H](O)CC[C@]4(C)[C@H]3CC[C@]12C`: “Active”; for `CCC(=O)NC[C@@H](C)[C@H]1CC[C@H]2C3=CC[C@H]4C[C@@H](OC(C)=O)CC[C@]4(C)[C@H]3CC[C@]12C`: “Active”.

Another data set relates to HL-60. Kind of data set: cells. To be noted: Homo sapiens.
Description: Cytotoxicity in human HL60 cells by MTT assay
A word on the IC50: it is the point on the concentration scale where inhibition reaches its midpoint. A high value points to a need for much substance. For `CN1CCN(CCCN2c3ccccc3Sc3ccc(C(F)(F)F)cc32)CC1` [TRIFLUOPERAZINE HYDROCHLORIDE], the IC50 amounted to 16 µM.
Same read-out and setting: the same measure for `C/C=C/C(=O)OC[C@@H](C)[C@H]1CC[C@H]2C3=CC[C@H]4C[C@@H](OC(C)=O)CC[C@]4(C)[C@H]3CC[C@]12C`: 10 µM.
For the molecule `CC(=O)O[C@H]1CC[C@@]2(C)[C@@H](CC=C3[C@@H]2CC[C@]2(C)[C@@H]([C@H](C)CO)CC[C@@H]32)C1`, the IC50 was over 50 µM.
On the same count and under the same terms, the same measure for `CCN(CC)CCOc1ccc(C(O)(Cc2ccc(Cl)cc2)c2ccc(C)cc2)cc1` (stereo not drawn) [TRIPARANOL]: 10 µM; for `CNC(=O)[C@@H](C)[C@H]1CC[C@H]2C3=CC[C@H]4C[C@@H](OC(C)=O)CC[C@]4(C)[C@H]3CC[C@]12C`: over 50 µM; for `C[C@H](/C=C/c1cc[n+](C)cc1)[C@H]1CC[C@H]2C3=CC[C@H]4C[C@@H](O)CC[C@]4(C)[C@H]3CC[C@]12C.[I-]`: 3 µM.
On to `C/C=C(\C)C(=O)OC[C@@H](C)[C@H]1CC[C@H]2C3=CC[C@H]4C[C@@H](OC(C)=O)CC[C@]4(C)[C@H]3CC[C@]12C`, for which the IC50 was over 50 µM.
On to `CC(=O)O[C@H]1CC[C@@]2(C)[C@@H](CC=C3[C@@H]2CC[C@]2(C)[C@@H]([C@H](C)CN)CC[C@@H]32)C1`, for which the IC50 is over 50 µM.
In turn, `C[C@H](CO)[C@H]1CC[C@H]2C3=CC[C@H]4C[C@@H](O)CC[C@]4(C)[C@H]3CC[C@]12C` had an IC50 of over 50 µM.
The molecule `CNC[C@@H](C)[C@H]1CC[C@H]2C3=CC[C@H]4C[C@@H](OC(C)=O)CC[C@]4(C)[C@H]3CC[C@]12C` came in with a concentration for half-maximal inhibition (IC50) of 20 µM. That is a double-digit micromolar value.
With `CONC(=O)[C@@H](C)[C@H]1CC[C@H]2C3=CC[C@H]4C[C@@H](OC(C)=O)CC[C@]4(C)[C@H]3CC[C@]12C`, the IC50 is over 50 µM.
Same read-out and setting: then `C[C@H](CCC(=O)N(C)C)[C@H]1CC[C@H]2[C@@H]3CC=C4C[C@@H](O)CC[C@]4(C)[C@H]3CC[C@]12C`, with over 50 µM.
Same read-out and setting: then `CCC(=O)NC[C@@H](C)[C@H]1CC[C@H]2C3=CC[C@H]4C[C@@H](OC(C)=O)CC[C@]4(C)[C@H]3CC[C@]12C`, with over 50 µM; and `CC(=O)O[C@H]1CC[C@@]2(C)[C@@H](CC=C3[C@@H]2CC[C@]2(C)[C@@H]([C@H](C)COC(=O)CN(C)C)CC[C@@H]32)C1`, with 21 µM.

For another data set, the system named is HL-60. Kind of data set: Cytotoxicity in human HL60 cells at 50 uM by MTT assay. To be noted: hl-60, 50 µM. It counts as cell-based. Background: Tetrazolium dyes change colour on reduction, which living cells bring about.
As to `C/C=C/C(=O)OC[C@@H](C)[C@H]1CC[C@H]2C3=CC[C@H]4C[C@@H](OC(C)=O)CC[C@]4(C)[C@H]3CC[C@]12C`, the Activity result is listed as “Toxic”.
The same measure, in the same setting: then `CCN(CC)CCOc1ccc(C(O)(Cc2ccc(Cl)cc2)c2ccc(C)cc2)cc1` (stereo not drawn) [TRIPARANOL], with “Toxic”; and `C[C@H](/C=C/c1cc[n+](C)cc1)[C@H]1CC[C@H]2C3=CC[C@H]4C[C@@H](O)CC[C@]4(C)[C@H]3CC[C@]12C.[I-]`, with “Toxic”.
Consider `CNC[C@@H](C)[C@H]1CC[C@H]2C3=CC[C@H]4C[C@@H](OC(C)=O)CC[C@]4(C)[C@H]3CC[C@]12C`, for which the Activity entry is “Toxic”.
For the molecule `CC(=O)O[C@H]1CC[C@@]2(C)[C@@H](CC=C3[C@@H]2CC[C@]2(C)[C@@H]([C@H](C)COC(=O)CN(C)C)CC[C@@H]32)C1`, the Activity entry is listed as “Toxic”.

In another data set the test system is HL-60. Kind of data set: Induction of sterol accumulation in human HL60 cells assessed as lathosterol accumulation at 50 uM incubated for 24 hrs by GC-MS analysis. It counts as functional, cell-based.
Conditions: not given
With `CN1CCN(CCCN2c3ccccc3Sc3ccc(C(F)(F)F)cc32)CC1` [TRIFLUOPERAZINE HYDROCHLORIDE], the result was Active.

The next data set concerns the target T1, Lathosterol oxidase (Homo sapiens) (UniProt O75845).
T1 sequence (whole entry): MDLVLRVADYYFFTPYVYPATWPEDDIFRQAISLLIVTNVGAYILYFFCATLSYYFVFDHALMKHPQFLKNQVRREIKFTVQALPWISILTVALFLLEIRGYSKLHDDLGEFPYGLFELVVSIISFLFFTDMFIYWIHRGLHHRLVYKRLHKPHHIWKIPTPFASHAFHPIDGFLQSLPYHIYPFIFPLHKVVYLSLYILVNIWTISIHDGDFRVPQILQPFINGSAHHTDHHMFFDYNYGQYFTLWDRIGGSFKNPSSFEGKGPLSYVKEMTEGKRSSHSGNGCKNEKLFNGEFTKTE
Kind of data set: Inhibition of C5-desaturase in human HL60 cells assessed as compound level causing induction of sterol accumulation incubated for 24 hrs by GC-MS analysis. Format: cell-based.
Conditions: not given
Take `CN1CCN(CCCN2c3ccccc3Sc3ccc(C(F)(F)F)cc32)CC1` [TRIFLUOPERAZINE HYDROCHLORIDE]: the INH is 1 to 50 µM.

The next data set has as its system HL-60. Kind of data set: Extracellular drug accumulation in human HL60 cells at 10 uM incubated for 24 hrs by GC-MS analysis. To be noted: hl-60, 24 h. It counts as ADME, cell-based.
`C[C@H](CO)[C@H]1CC[C@H]2C3=CC[C@H]4C[C@@H](O)CC[C@]4(C)[C@H]3CC[C@]12C` displayed a Drug uptake of 6 µM.

In the next data set the test system is HL-60. Kind of data set: Induction of sterol accumulation in human HL60 cells assessed as holesta-7,24-dien-3beta-ol accumulation at 1 uM incubated for 24 hrs by GC-MS analysis. It counts as functional, cell-based.
Conditions: not given
On to `CCN(CC)CCOc1ccc(C(O)(Cc2ccc(Cl)cc2)c2ccc(C)cc2)cc1` (stereo not drawn) [TRIPARANOL], for which the outcome was Active.
Same read-out and setting: the same measure for `CNC[C@@H](C)[C@H]1CC[C@H]2C3=CC[C@H]4C[C@@H](OC(C)=O)CC[C@]4(C)[C@H]3CC[C@]12C`: “Active”.

A further data set has as its system HL-60. Kind of data set: Induction of sterol accumulation in human HL60 cells assessed as zymosterol accumulation at 1 uM incubated for 24 hrs by GC-MS analysis. Format: functional, cell-based.
Conditions: not given
As to `CCN(CC)CCOc1ccc(C(O)(Cc2ccc(Cl)cc2)c2ccc(C)cc2)cc1` (stereo not drawn) [TRIPARANOL], the result was Active.
For `CNC[C@@H](C)[C@H]1CC[C@H]2C3=CC[C@H]4C[C@@H](OC(C)=O)CC[C@]4(C)[C@H]3CC[C@]12C`, the result was Active.

The subject of a further data set is HL-60. Kind of data set: Induction of sterol accumulation in human HL60 cells assessed as lathosterol accumulation at 1 uM incubated for 24 hrs by GC-MS analysis.
Conditions: not given
It counts as functional, cell-based.
Take `CN1CCN(CCCN2c3ccccc3Sc3ccc(C(F)(F)F)cc32)CC1` [TRIFLUOPERAZINE HYDROCHLORIDE]: the outcome was Active.
As to `CCN(CC)CCOc1ccc(C(O)(Cc2ccc(Cl)cc2)c2ccc(C)cc2)cc1` (stereo not drawn) [TRIPARANOL], the outcome was Active.
Same read-out and setting: the same measure for `CNC[C@@H](C)[C@H]1CC[C@H]2C3=CC[C@H]4C[C@@H](OC(C)=O)CC[C@]4(C)[C@H]3CC[C@]12C`: “Active”.
